Experimental data taken from US10876115B2, “Method for assaying MicroRNA, cancer therapeutic agent, and medical composition containing same for cancer therapy” (National University Corporation Tokyo Medical and Dental …, priority 2013, dated 2020).

system: transcriptional activity of NRF2 (ARE activity); assay: miRNA library screening using ARE-luciferase reporter system; type: cell-based, human; settings: HeLa cells, 20 nmol/L miRNA, 48 hours after transfection, luciferase activity per living cell
Protocol: The luciferase reporter plasmid was prepared by inserting a human NQO-1 promoter region 5′-[…]-3′ (SEQ ID NO: 19) including an antioxidant response element (ARE) into an Mlu1/Xho1 site in pGL3 vector (Promega). Specifically, a pair of synthetic oligonucleotides complementary with each other shown in Table 2 (upper; SEQ ID NO: 20, lower; SEQ ID NO: 21) were annealed, to thereby form a double-stranded DNA, and a double-stranded DNA having cohesive ends complementary to the Mlu1/Xho1 site was prepared by use of Mlu1 and Xho1. The thus-produced double-stranded DNA fragment was inserted into the Mlu1/Xho1 site, to thereby yield a recombinant pGL3 (reporter plasmid) of interest.
Firstly, the reporter plasmid was transiently transfected into HeLa cells (1×10^7 cells/dish) in a 10 cm dish. 24 hours after transfection, the cells (1×10^4 cells/well) were seeded on a 96-well plate, and the next day, 20 nmol/L of each of the 470 double-stranded RNA fragments, derived from Pre-miRNA precursor library-Human V3 (Ambion) or control miRNA was transfected. After two days, firefly luciferase activity was measured by means of a microplate reader (ARVOmx; Perkinelmer) using Bright-Glo Luciferase Assay System (Promega). At the same time, living cells were detected through CV staining assay. ARE activity was calculated from the luciferase activity per living cell.
For the screening of 470 double-stranded RNAs, HeLa cells were sequentially transfected with each miRNA together with the reporter plasmid, and then the ARE activity in each transfected cell was calculated as the luciferase activity per living cell, as measured by the crystal violet (CV) staining assay. Briefly, the ARE-luciferase reporter plasmid and each miRNA from the library were sequentially transfected into HeLa cells, and after 48 hours, luciferase activity or the number of living cells was measured using the Bright-GIo Luciferase Assay System or crystal violet (CV) staining assay, respectively. The ARE activity for each miRNA-transfected cell was calculated as the luciferase activity per living cell.
The ARE activity relative to that in control-miRNA-transfected cells is indicated on the vertical axis. Eight miRNAs with a relative ratio of 0.5 or less were identified as candidates by this screening system. Also, eight miRNAs with a relative ratio of 1.5 or more were similarly identified as candidates by this screening system.

| Substance | ARE activity relative to that in control-miRNA-transfected cells (relative ratio) |
| --- | --- |
| hsa-miR-556: low-value miRNA from Pre-miRNA precursor library; mature sequence GAUGAGCUCAUUGUAAUAUGAG, SEQ ID NO: 8 (listed as RNA, chemistry not given here; listed as Homo sapiens) | large decrease |
| hsa-miR-337: low-value miRNA from Pre-miRNA precursor library; mature sequence GAACGGCUUCAUACAGGAGUU, SEQ ID NO: 6 (listed as RNA, chemistry not given here; listed as Homo sapiens) | large decrease |
| hsa-miR-639: low-value miRNA from Pre-miRNA precursor library; mature sequence AUCGCUGCGGUUGCGAGCGCUGU, SEQ ID NO: 5 (listed as RNA, chemistry not given here; listed as Homo sapiens) | large decrease |
| hsa-miR-153: low-value miRNA from Pre-miRNA precursor library; mature sequence UUGCAUAGUCACAAAAGUGAUC, SEQ ID NO: 7 (listed as RNA, chemistry not given here; listed as Homo sapiens) | large decrease |
